According to US20180312511A1, “SHORT-ACTING BENZODIAZEPINE DERIVATIVES, PREPARATION METHOD THEREFOR, AND USE THEREOF” (SICHUAN KELUN-BIOTECH BIOPHARMACEUTICAL CO., LTD., priority 2015, published 2018):

Assays:
Rhesus monkeys = experiment: Anesthetic effects in monkeys (loss of consciousness); format: in vivo; conditions: intravenous single bolus
From the text: (§1) In anesthetic activity tests, latency generally refers to the period between the start of administration of a drug to a subject and the moment that the subject becomes unconscious. A short latency is desirable, since it represents fast onset of the drug.
(§2) The duration of anesthesia generally refers to the period between the moment that a subject becomes unconscious and the moment that the subject regains consciousness. The durations will be different for different animal models or animal species. An over-long duration of anesthesia may result in adverse suppressive effects on the cardiovascular and respiratory systems, such as side effects on the nervous system, including drowsiness, dizziness, etc.; at the same time, an over-short duration of anesthesia may affect the anesthetic effect, causing dose increase of anesthetic during surgery and other issues.
Rhesus monkeys (male, 5-6 kg) were randomly divided into several groups. After administering the drugs intravenously in a single bolus, the latency to and the duration of loss of consciousness were recorded.

[1] = tested on: GABA Cl− current, HEK293T cells; experiment: Cellular GABA activation current via whole-cell patch clamp; format: cell-based; conditions: Homo sapiens, HEK-293T, with 1 μM GABA, holding potential −60 mV; for Emax at 30 µM: concentration 30 μM; for EC50: read-out: EC50 (concentration at half of Emax); for Emax at 10 µM: concentration 10 μM
Experimental: Test compounds were dissolved in external solution (NaCl 140 mM, KCl 4.7 mM, HEPES 10 mM. CaCl2 2 mM, glucose 11 mM, and MgCl2 1 mM, pH 7.4) at various concentrations. HEK293T cells were plated on glass cover slips, and incubated in DMEM medium at 37° C. and 5% CO2 for 24 h.
An HEKA EPC 10 USB patch clamp amplifier was used in the whole-cell recording of GABA Cl^− current. 1 μM GABA was used to excite Cl^− current. Cells were voltage clamped at a holding potential of −60 mV, and treated with the test compounds of different concentrations together with 1 μM of GABA. The Cl^− current induction effect of the test compounds on the same cell, the maximum percentage of current potentiation (Emax), and the concentration of test compounds at half of Emax (EC50) were recorded.

Kunming mice = experiment: Drug-induced loss of righting reflex in mice; format: in vivo; conditions: 60 mg/kg, single bolus via tail vein
From the text: as §1, §2
Kunming mice (male, 18-25 g) were randomly divided into several groups. After administering the drugs in a single bolus via the tail vein, the latency to loss of righting reflex and the duration of loss of righting reflex were recorded.

[2] = read-out: Emax (maximum percentage of current potentiation)

Compound | Latency to loss of consciousness (Rhesus monkeys; 6 mg/kg) | Duration of loss of consciousness (Rhesus monkeys; 8 mg/kg) | Latency to loss of righting reflex (Kunming mice) | EC50 [1] | Duration of loss of righting reflex (Kunming mice) | other results
COC(=O)CC[C@@H]1N=C(c2ccccn2)c2cc(Br)ccc2-n2ccnc21 [Example 2, (S)-methyl 3-(8-bromo-6-(pyridin-2-yl)-4H-benzo[f]imidazo[1,2-a][1,4]diazepin-4-yl)propanoate] | 3.92 min | 55.90 min | 0.13 min | – | – | Duration of loss of consciousness (Rhesus monkeys; 6 mg/kg): 18.10 min; Emax at 30 µM [1, 2]: 358%
COC(=O)CC[C@@H]1N=C(c2ccccc2)c2cc(Cl)ccc2-n2cnnc21 [Example 3, (S)-methyl 3-(8-chloro-6-phenyl-4H-benzo[f][1,2,4]triazolo[4,3-a][1,4]diazepin-4-yl)propanoate] | – | – | – | 950 nM | 11.76 min | Emax at 30 µM [1, 2]: 325%
COC(=O)CC[C@@H]1N=C(c2ccccn2)c2cc(Br)ccc2-n2c(C)nnc21 [Example 4, (S)-methyl 3-(8-bromo-1-methyl-6-(pyridin-2-yl)-4H-benzo[f][1,2,4]triazolo[4,3-a][1,4]diazepin-4-yl)propanoate] | – | 45.00 min | – | 980 nM | 19.14 min | Emax at 30 µM [1, 2]: 472%
COC(=O)CC[C@@H]1N=C(c2ccccn2)c2cc(Br)ccc2-n2c(C3CC3)cnc21 [Example 5, (S)-methyl 3-(8-bromo-1-cyclopropyl-6-(pyridin-2-yl)-4H-benzo[f]imidazo[1,2-a][1,4]diazepin-4-yl)propanoate] | – | – | – | 360 nM | 23.33 min | Emax at 10 µM [1, 2]: 160%
[2H]Cc1cnc2n1-c1ccc(Br)cc1C(c1ccccn1)=N[C@H]2CCC(=O)OC [Example 6, (S)-methyl 3-(8-bromo-1-deuteromethyl-6-(pyridin-2-yl)-4H-benzo[f]imidazo[1,2-a][1,4]diazepin-4-yl)propanoate] | – | – | 0.17 min | – | 23.95 min | –
COC(=O)CC[C@@H]1N=C(c2ccccn2)c2cc(Br)ccc2-n2cnnc21 [Example 9, (S)-methyl 3-(8-bromo-6-(pyridin-2-yl)-4H-benzo[f][1,2,4]triazolo[4,3-a][1,4]diazepin-4-yl)propanoate] | – | 36.47 min | – | 720 nM | 12.88 min | Emax at 10 µM [1, 2]: 408%
COCc1cnc2n1-c1ccc(Br)cc1C(c1ccccn1)=N[C@H]2CCC(=O)OC [Example 10, (S)-methyl 3-(8-bromo-1-(methoxymethyl)-6-(pyridin-2-yl)-4H-benzo[f]imidazo[1,2-a][1,4]diazepin-4-yl)propanoate] | 4.00 min | 26.00 min | – | 470 nM | 17.27 min | Duration of loss of consciousness (Rhesus monkeys; 6 mg/kg): 26.00 min; Emax at 3 µM ([1]; concentration 3 μM, read-out: Emax (maximum percentage of current potentiation)): 197%
[2H]Cc1nnc2n1-c1ccc(Br)cc1C(c1ccccn1)=N[C@H]2CCC(=O)OC [Example 11, (S)-methyl 3-(8-bromo-1-deuteromethyl-6-(pyridin-2-yl)-4H-benzo[f][1,2,4]triazolo[4,3-a][1,4]diazepin-4-yl)propanoate] | – | – | – | 400 nM | 12.82 min | Emax at 30 µM [1, 2]: 319%
CCc1cnc2n1-c1ccc(Br)cc1C(c1ccccn1)=N[C@H]2CCC(=O)OC [Example 15, (S)-methyl 3-(8-bromo-1-ethyl-6-(pyridin-2-yl)-4H-benzo[f]imidazo[1,2-a][1,4]diazepin-4-yl)propanoate] | 2.75 min | – | 0.24 min | – | – | Duration of loss of consciousness (Rhesus monkeys; 4 mg/kg): 37.50 min; Latency to loss of consciousness (Rhesus monkeys; 4 mg/kg): 3.75 min; Duration of loss of consciousness (Rhesus monkeys; 6 mg/kg): 49.00 min
COC(=O)CC[C@@H]1N=C(c2ccccc2F)c2cc(Cl)ccc2-n2cnnc21 [Example 17, (S)-methyl 3-(8-chloro-6-(2-fluorophenyl)-4H-benzo[f][1,2,4]triazolo[4,3-a][1,4]diazepin-4-yl)propanoate] | – | 52.50 min | – | – | 18.51 min | –
COC(=O)CC[C@@H]1N=C(c2ccccc2F)c2cc(Cl)ccc2-n2c(C3CC3)nnc21 [Example 18, (S)-methyl 3-(8-chloro-1-cyclopropyl-6-(2-fluorophenyl)-4H-benzo[f][1,2,4]triazolo[4,3-a][1,4]diazepin-4-yl)propanoate] | 5.09 min | – | 0.19 min | 470 nM | 25.61 min | Duration of loss of consciousness (Rhesus monkeys; 1 mg/kg): 41.15 min; Latency to loss of consciousness (Rhesus monkeys; 1 mg/kg): 3.30 min; Latency to loss of consciousness (Rhesus monkeys; 4 mg/kg): 5.10 min; Emax at 10 µM [1, 2]: 347%
COC(=O)CC[C@@H]1N=C(c2ccccn2)c2cc(Cl)ccc2-n2c(C3CC3)cnc21 [Example 21, (S)-methyl 3-(8-chloro-1-cyclopropyl-6-(pyridin-2-yl)-4H-benzo[f]imidazo[1,2-a][1,4]diazepin-4-yl)propanoate] | – | – | – | – | 23.23 min | –
COC(=O)CC[C@@H]1N=C(c2ccccn2)c2cc(Cl)ccc2-n2c(C3CCC3)cnc21 [Example 29, (S)-methyl 3-(8-chloro-1-cyclobutyl-6-(pyridin-2-yl)-4H-benzo[f]imidazo[1,2-a][1,4]diazepin-4-yl)propanoate] | – | – | 0.21 min | – | 19.09 min | –
CCc1nnc2n1-c1ccc(Cl)cc1C(c1ccccn1)=N[C@H]2CCC(=O)OC [Example 30, (S)-methyl 3-(8-chloro-1-ethyl-6-(pyridin-2-yl)-4H-benzo[f][1,2,4]triazolo[4,3-a][1,4]diazepin-4-yl)propanoate] | – | – | 0.20 min | – | 17.74 min | –
COC(=O)CC[C@@H]1N=C(c2ccccn2)c2cc(Cl)ccc2-n2c(C(C)C)nnc21 [Example 31, (S)-methyl 3-(8-chloro-1-isopropyl-6-(pyridin-2-yl)-4H-benzo[f][1,2,4]triazolo[4,3-a][1,4]diazepin-4-yl)propanoate] | – | – | 0.16 min | – | 17.82 min | –
COC(=O)CC[C@@H]1N=C(c2ccccn2)c2cc(Br)ccc2-n2c(C)cnc21 [Remimazolam, reference compound] | 5.50 min | – | 0.28 min | – | – | Latency to loss of consciousness (Rhesus monkeys; 4 mg/kg): 5.34 min
